Measured values from patent US9617256B2 (priority 2007, dated 2017).
Values after ≈ are worked out from the molar mass of the structure shown.

Assays:
APAE001 (ATCC27853) = test: MIC broth microdilution, APAE001; type: cell-based, P. aeruginosa; conditions: Pseudomonas aeruginosa, ATCC27853, read-out: MIC APAE001, APAE001 is ATCC27853
Procedure, shortened: (§1)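 Incubation: 35° C., ambient air, 18-24 h. Medium: cation-adjusted Mueller-Hinton broth with 2-fold serial dilutions of drug. Inoculum: 3×10^5–7×10^5 CFU/mL final, per CLSI microdilution method.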

[1] = tested on: APAE006 (strain of P. aeruginosa in which all efflux pumps are inactivated); test: microbe, parasite or virus in culture; type: cell-based; conditions: Pseudomonas aeruginosa, read-out: MIC APAE006, P. aeruginosa, all efflux pumps inactivated
Procedure, shortened: (§2)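 MICs come from broth microdilution in cation-adjusted Mueller-Hinton broth, final inoculum 3×10^5–7×10^5 CFU/mL, 18-24 hours at 35° C. Levofloxacin and QC strains served as assay controls.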

[2] = tested on: APAE006 in the presence of 8 micrograms per milliliter of polymyxin B nonapeptide; type: cell-based, P. aeruginosa; conditions: in the presence of 8 micrograms per milliliter of polymyxin B nonapeptide
Procedure, shortened: as §2

AECO001 HSA AGP = test: MIC broth microdilution, AECO001 HSA AGP; type: cell-based, E. coli; conditions: Escherichia coli
Description: Bacterial isolates were cultivated from −70° C. frozen stocks by overnight passages at 35° C. in ambient air on Mueller-Hinton agar (Beckton Dickinson, Franklin Lakes, N.J.). Clinical isolates tested were obtained from various geographically diverse hospitals in the US and abroad (Focus Diagnostics, Herndon, Va. and JMI, North Liberty, Iowa). Quality control strains were from the American Type Culture Collection (ATCC; Rockville, Md.). Additional primary panel strains were generated using standard molecular biology techniques.
Minimum Inhibitory Concentrations (MICs) were determined by the broth microdilution method in accordance with the Clinical and Laboratory Standards Institute (CLSI) guidelines. In brief, organism suspensions were adjusted to a 0.5 McFarland standard to yield a final inoculum between 3×10^5 and 7×10^5 colony-forming units (CFU)/mL. Drug dilutions and inocula were made in sterile, cation adjusted Mueller-Hinton Broth (Beckton Dickinson). An inoculum volume of 100 μL was added to wells containing 100 μL of broth with 2-fold serial dilutions of drug. All inoculated microdilution trays were incubated in ambient air at 35° C. for 18-24 hours. […] Performance of the assay was monitored by the use of laboratory quality-control strains and levofloxacin, a compound with a defined MIC spectrum, in accordance with CLSI guidelines.
*AECO001 is ATCC25922, AECO063 is ATCC25922 bearing an acrAB mutation, APAE001 is ATCC27853, APAE006 is a strain of P. aeruginosa in which all efflux pumps are inactivated, APAE006+PMBN indicates MICs with the indicated strain in the presence of 8 micrograms per milliliter of polymyxin B nonapeptide, AABA1060 is a clinical isolate of Acinetobacter baumannii, ASAU001 is a laboratory strain of S. aureus (ATCC29213).

[3] = tested on: AECO063 (ATCC25922 bearing an acrAB mutation); test: microbe, parasite or virus in culture; type: cell-based, E. coli; conditions: Escherichia coli, ATCC25922, read-out: MIC AECO063
Procedure, shortened: as §1

[4] = tested on: ASAU001 (laboratory strain of S. aureus, ATCC29213); test: MIC broth microdilution, ASAU001; type: cell-based; conditions: Staphylococcus aureus, ATCC29213, read-out: MIC ASAU001
Procedure, shortened: as §1

[5] = tested on: AABA1060 (clinical isolate of Acinetobacter baumannii); test: MIC broth microdilution, AABA1060; type: cell-based; conditions: Acinetobacter baumannii, read-out: MIC AABA1060
Procedure, shortened: as §1

AECO001 (ATCC25922) = test: MIC broth microdilution, AECO001; type: cell-based, E. coli; conditions: Escherichia coli, ATCC25922, read-out: MIC AECO001
Procedure, shortened: as §1

In the case of C[C@@H](N)[C@H](NC(=O)c1ccc(/C=C/C#Cc2ccccc2F)cc1)C(=O)NO [Example 114-3], the MIC (APAE001 (ATCC27853)) is reported as under 2 µg/mL, the MIC [1] is reported as under 2 µg/mL and the “MIC APAE006 + PMBN” value [2] is reported as “A (MIC's of 2.0 μg/mL or less = A)”. The MIC (AECO001 HSA AGP) was 2 to 16 µg/mL (≈ 5.24 to 41.9 µM), the MIC [3] was under 2 µg/mL and the MIC [4] was 16 to 64 µg/mL (≈ 41.9 to 168 µM). It also gave an MIC [5] of under 2 µg/mL and an MIC (AECO001 (ATCC25922)) of under 2 µg/mL.

For COC(=O)[C@@H](NC(=O)c1ccc(C#C/C(F)=C/c2ccc(CN3CCOCC3)cc2)cc1)[C@@H](C)O [Example 109-2, (2S,3R)-methyl 2-(4-((Z)-3-fluoro-4-(4-(morpholinomethyl)phenyl)but-3-en-1-ynyl)benzamido)-3-hydroxybutanoate], the MIC (APAE001 (ATCC27853)) was 2 to 16 µg/mL (≈ 4.16 to 33.3 µM), the MIC [1] was under 2 µg/mL and the “MIC APAE006 + PMBN” value [2] was “A (MIC's of 2.0 μg/mL or less = A)”. It also gave an MIC (AECO001 HSA AGP) of 2 to 16 µg/mL (≈ 4.16 to 33.3 µM), an MIC [3] of under 2 µg/mL and an MIC [4] of 16 to 64 µg/mL (≈ 33.3 to 133 µM). The MIC [5] was 2 to 16 µg/mL (≈ 4.16 to 33.3 µM) and the MIC (AECO001 (ATCC25922)) was under 2 µg/mL.

In the case of C[C@@H](N)[C@H](NC(=O)c1ccc(C#CC#Cc2cccc(Cl)c2)cc1)C(=O)NO [Example 82-9], the MIC (APAE001 (ATCC27853)) is reported as 2 to 16 µg/mL (≈ 5.05 to 40.4 µM), the MIC [1] is reported as under 2 µg/mL and the “MIC APAE006 + PMBN” value [2] is reported as “A (MIC's of 2.0 μg/mL or less = A)”. It also gave an MIC (AECO001 HSA AGP) of 2 to 16 µg/mL (≈ 5.05 to 40.4 µM), an MIC [3] of under 2 µg/mL and an MIC [4] of 2 to 16 µg/mL (≈ 5.05 to 40.4 µM). The MIC [5] was 2 to 16 µg/mL (≈ 5.05 to 40.4 µM) and the MIC (AECO001 (ATCC25922)) was under 2 µg/mL.

C[C@@H](N)[C@H](NC(=O)c1ccc(C#Cc2cncnc2)cc1)C(=O)NO [Example 133-7] was tested, and the MIC (APAE001 (ATCC27853)) was under 2 µg/mL, the MIC [1] was under 2 µg/mL and the “MIC APAE006 + PMBN” value [2] was “A (MIC's of 2.0 μg/mL or less = A)”. For the same compound, the MIC (AECO001 HSA AGP) was 2 to 16 µg/mL (≈ 5.89 to 47.1 µM), the MIC [3] was under 2 µg/mL and the MIC [4] was 2 to 16 µg/mL (≈ 5.89 to 47.1 µM). The MIC [5] was under 2 µg/mL and the MIC (AECO001 (ATCC25922)) was under 2 µg/mL.

With C[C@@H](N)[C@H](NC(=O)c1ccc(C#CC#Cc2ccccc2)cc1)C(=O)NO [Example 82-4] the MIC (APAE001 (ATCC27853)) was 2 to 16 µg/mL (≈ 5.53 to 44.3 µM), the MIC [1] was under 2 µg/mL and the “MIC APAE006 + PMBN” value [2] was “A (MIC's of 2.0 μg/mL or less = A)”. The MIC (AECO001 HSA AGP) was 2 to 16 µg/mL (≈ 5.53 to 44.3 µM), the MIC [3] was under 2 µg/mL and the MIC [4] was 2 to 16 µg/mL (≈ 5.53 to 44.3 µM). The MIC [5] was 2 to 16 µg/mL (≈ 5.53 to 44.3 µM) and the MIC (AECO001 (ATCC25922)) was under 2 µg/mL.

For C[C@@H](N)[C@H](NC(=O)c1ccc(C#CC#Cc2ccc(OC(F)(F)F)cc2)cc1)C(=O)NO [Example 82-11], the MIC (APAE001 (ATCC27853)) was 16 to 64 µg/mL (≈ 35.9 to 144 µM), the MIC [1] was 2 to 16 µg/mL (≈ 4.49 to 35.9 µM) and the “MIC APAE006 + PMBN” value [2] was “A (MIC's of 2.0 μg/mL or less = A)”. For the same compound, the MIC (AECO001 HSA AGP) was 2 to 16 µg/mL (≈ 4.49 to 35.9 µM), the MIC [3] was under 2 µg/mL and the MIC [4] was 16 to 64 µg/mL (≈ 35.9 to 144 µM). The MIC [5] was 16 to 64 µg/mL (≈ 35.9 to 144 µM) and the MIC (AECO001 (ATCC25922)) was 2 to 16 µg/mL (≈ 4.49 to 35.9 µM).

With C[C@@H](N)[C@H](NC(=O)c1ccc(C#CC#Cc2ccc(N)cc2)cc1)C(=O)NO [Example 82-16] the MIC (APAE001 (ATCC27853)) was under 2 µg/mL, the MIC [1] was under 2 µg/mL and the “MIC APAE006 + PMBN” value [2] was “A (MIC's of 2.0 μg/mL or less = A)”. It also gave an MIC (AECO001 HSA AGP) of 2 to 16 µg/mL (≈ 5.31 to 42.5 µM), an MIC [3] of under 2 µg/mL and an MIC [4] of 16 to 64 µg/mL (≈ 42.5 to 170 µM). For the same compound, the MIC [5] was under 2 µg/mL and the MIC (AECO001 (ATCC25922)) was under 2 µg/mL.

For NC[C@H](NC(=O)c1ccc(C#CC#Cc2ccc(CO)cc2)cc1)C(=O)NO [Example 82-2], the MIC (APAE001 (ATCC27853)) was under 2 µg/mL, the MIC [1] was under 2 µg/mL and the “MIC APAE006 + PMBN” value [2] was “A (MIC's of 2.0 μg/mL or less = A)”. The MIC (AECO001 HSA AGP) was 16 to 64 µg/mL (≈ 42.4 to 170 µM), the MIC [3] was under 2 µg/mL and the MIC [4] was 16 to 64 µg/mL (≈ 42.4 to 170 µM). It also gave an MIC [5] of 16 to 64 µg/mL (≈ 42.4 to 170 µM) and an MIC (AECO001 (ATCC25922)) of under 2 µg/mL.
